Laboratory results: ChEMBL document CHEMBL1156476, “Inhibition of mammalian target of rapamycin signaling by 2-(morpholin-1-yl)pyrimido[2,1-alpha]isoquinolin-4-one” (J Biol Chem, 2007)
Each block holds one compound with its values, some of them ahead of it. The source made the active and inactive calls. No cut-off for these calls is given here.

How the values were obtained:
[1] = molecular target: DNA-dependent protein kinase catalytic subunit (Homo sapiens, UniProt P78527); test: Inhibition of DNA-PK
[2] = molecular target: T1, Serine/threonine-protein kinase mTOR (Homo sapiens, UniProt P42345); test: Inhibition of mTOR
[3] = molecular target: T1, Serine/threonine-protein kinase mTOR; test: Inhibition of PDGF-activated mTOR signaling in rat-1 fibroblasts assessed as Akt Ser473 site phosphorylation by Western blot
[4] = molecular target: T1, Serine/threonine-protein kinase mTOR; test: Inhibition of PDGF-activated mTOR signaling in rat-1 fibroblasts assessed as S6K1 Thr389 site phosphorylation by Western blot
[5] = molecular target: MAP kinase-activated protein kinase 2 (Homo sapiens) (UniProt P49137); test: Inhibition of MAPKAPK2 at 5 uM
Sequence of MAP kinase-activated protein kinase 2 (Homo sapiens) (P49137 whole entry, looked up, canonical isoform): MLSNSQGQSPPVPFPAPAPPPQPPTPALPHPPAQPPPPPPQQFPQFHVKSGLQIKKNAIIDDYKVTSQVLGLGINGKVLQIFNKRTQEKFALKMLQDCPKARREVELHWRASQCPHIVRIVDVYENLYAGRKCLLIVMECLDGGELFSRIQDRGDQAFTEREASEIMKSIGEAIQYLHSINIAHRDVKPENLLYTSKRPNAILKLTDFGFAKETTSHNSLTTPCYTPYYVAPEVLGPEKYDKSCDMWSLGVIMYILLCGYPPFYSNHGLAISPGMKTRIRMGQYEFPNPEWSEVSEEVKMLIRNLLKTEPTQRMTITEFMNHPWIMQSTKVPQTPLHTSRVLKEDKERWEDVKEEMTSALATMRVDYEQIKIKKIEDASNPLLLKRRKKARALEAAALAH

[6] = molecular target: Casein kinase I isoform gamma-2 (Homo sapiens) (UniProt P78368); test: Inhibition of CSNK1G2 at 5 uM
[7] = molecular target: Glycogen synthase kinase-3 beta (Homo sapiens) (UniProt P49841); test: Inhibition of GSK3B at 5 uM
[8] = molecular target: Dual specificity tyrosine-phosphorylation-regulated kinase 3 (Homo sapiens) (UniProt O43781); test: Inhibition of DYRK3 at 5 uM
[9] = molecular target: Tyrosine-protein kinase SYK (Homo sapiens) (UniProt P43405); test: Inhibition of SYK at 5 uM
[10] = molecular target: Aurora kinase A (Homo sapiens) (UniProt O14965); test: Inhibition of STK6 at 5 uM
[11] = molecular target: RAC-alpha serine/threonine-protein kinase (Homo sapiens) (UniProt P31749); test: Inhibition of AKT1 at 5 uM
[12] = molecular target: Tyrosine-protein kinase JAK3 (Homo sapiens) (UniProt P52333); test: Inhibition of JAK3 at 5 uM
[13] = molecular target: Ribosomal protein S6 kinase beta-1 (Mus musculus) (UniProt Q8BSK8); test: Blockade of S6K1 phosphorylation in TSC1-deficient mouse embryo fibroblasts assessed as Thr389 phosphorylation at 10 uM after 24 hrs by Western blot
Sequence of Ribosomal protein S6 kinase beta-1 (Mus musculus) (Q8BSK8 whole entry): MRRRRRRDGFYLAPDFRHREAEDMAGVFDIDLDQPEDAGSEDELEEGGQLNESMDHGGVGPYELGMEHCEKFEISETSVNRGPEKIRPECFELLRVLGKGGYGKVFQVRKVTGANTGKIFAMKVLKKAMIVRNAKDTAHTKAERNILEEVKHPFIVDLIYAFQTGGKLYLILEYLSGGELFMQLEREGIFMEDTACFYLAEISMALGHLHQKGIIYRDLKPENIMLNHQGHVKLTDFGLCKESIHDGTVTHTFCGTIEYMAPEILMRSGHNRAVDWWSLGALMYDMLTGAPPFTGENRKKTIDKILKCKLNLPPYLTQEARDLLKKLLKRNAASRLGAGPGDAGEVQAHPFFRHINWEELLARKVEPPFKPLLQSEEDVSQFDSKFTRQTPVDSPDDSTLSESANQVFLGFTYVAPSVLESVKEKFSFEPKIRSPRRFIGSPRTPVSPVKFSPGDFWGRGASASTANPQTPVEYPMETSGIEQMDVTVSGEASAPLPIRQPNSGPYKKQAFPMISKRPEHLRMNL

[14] = molecular target: Proto-oncogene tyrosine-protein kinase receptor Ret (Homo sapiens) (UniProt P07949); test: Inhibition of RET at 5 uM
[15] = molecular target: Rho-associated protein kinase 1 (Homo sapiens) (UniProt Q13464); test: Inhibition of ROCK1 at 5 uM
Fibroblast [16] = test: Induction of apoptosis in TSC1-deficient mouse embryo fibroblasts assessed as level of nucleosomes in cell cytoplasm at 100 nM after 24 hrs; assay type: functional, cell-based
COS-7 = test: Inhibition of Akt T308D mutant transfected in african green monkey COS7 cells assessed as insulin-induced […] phosphorylation by Western blot; assay type: cell-based
[17] = molecular target: PI3-kinase p110-alpha/p85-alpha (Homo sapiens, UniProt P42336); test: Inhibition of p110alpha/p85-alpha PI3K; assay type: protein-complex assay
[18] = tested on: RAC-alpha serine/threonine-protein kinase (Homo sapiens), P31749 [S473D]; test: Inhibition of Akt S473D mutant transfected in african green monkey COS7 cells assessed as insulin-induced […] phosphorylation by Western blot; assay type: cell-based; details: COS-7
[19] = molecular target: Epidermal growth factor receptor (Homo sapiens) (UniProt P00533); test: Inhibition of EGFR at 5 uM
[20] = molecular target: Mast/stem cell growth factor receptor Kit (Homo sapiens) (UniProt P10721); test: Inhibition of KIT at 5 uM
Fibroblast [21] = test: Antiproliferative activity against TSC1-deficient mouse embryo fibroblasts assessed as decrease in cell number; assay type: functional, cell-based
[22] = molecular target: Angiopoietin-1 receptor (Homo sapiens) (UniProt Q02763); test: Inhibition of TEK at 5 uM
[23] = molecular target: Insulin receptor (Homo sapiens) (UniProt P06213); test: Inhibition of INSR at 5 uM
[24] = molecular target: Serine/threonine-protein kinase pim-1 (Homo sapiens) (UniProt P11309); test: Inhibition of PIM1 at 5 uM
[25] = molecular target: T1, Serine/threonine-protein kinase mTOR; test: Inhibition of mTOR kinase activity in epitope-tagged AU1 immunoprecipitates expressed in human 293F cells at 5 uM by autoradiography; assay type: cell-based
[26] = molecular target: Mitogen-activated protein kinase 3 (Homo sapiens) (UniProt P27361); test: Inhibition of MAPK3 at 5 uM
[27] = molecular target: Serine/threonine-protein kinase Chk1 (Homo sapiens) (UniProt O14757); test: Inhibition of CHEK1 at 5 uM
[28] = molecular target: T1, Serine/threonine-protein kinase mTOR; test: Inhibition of IGF1-activated mTOR signaling in human M059J glioma cells assessed as Akt Ser473 site phosphorylation at 10 uM by Western blot; assay type: cell-based
[29] = molecular target: Platelet-derived growth factor receptor beta (Homo sapiens) (UniProt P09619); test: Inhibition of PDGFRbeta at 5 uM
[30] = molecular target: Fibroblast growth factor receptor 1 (Homo sapiens) (UniProt P11362); test: Inhibition of FGFR1 at 5 uM
[31] = molecular target: Tyrosine-protein kinase ABL1 (Homo sapiens) (UniProt P00519); test: Inhibition of ABL1 at 5 uM
Sequence of Tyrosine-protein kinase ABL1 (Homo sapiens) (P00519 whole entry): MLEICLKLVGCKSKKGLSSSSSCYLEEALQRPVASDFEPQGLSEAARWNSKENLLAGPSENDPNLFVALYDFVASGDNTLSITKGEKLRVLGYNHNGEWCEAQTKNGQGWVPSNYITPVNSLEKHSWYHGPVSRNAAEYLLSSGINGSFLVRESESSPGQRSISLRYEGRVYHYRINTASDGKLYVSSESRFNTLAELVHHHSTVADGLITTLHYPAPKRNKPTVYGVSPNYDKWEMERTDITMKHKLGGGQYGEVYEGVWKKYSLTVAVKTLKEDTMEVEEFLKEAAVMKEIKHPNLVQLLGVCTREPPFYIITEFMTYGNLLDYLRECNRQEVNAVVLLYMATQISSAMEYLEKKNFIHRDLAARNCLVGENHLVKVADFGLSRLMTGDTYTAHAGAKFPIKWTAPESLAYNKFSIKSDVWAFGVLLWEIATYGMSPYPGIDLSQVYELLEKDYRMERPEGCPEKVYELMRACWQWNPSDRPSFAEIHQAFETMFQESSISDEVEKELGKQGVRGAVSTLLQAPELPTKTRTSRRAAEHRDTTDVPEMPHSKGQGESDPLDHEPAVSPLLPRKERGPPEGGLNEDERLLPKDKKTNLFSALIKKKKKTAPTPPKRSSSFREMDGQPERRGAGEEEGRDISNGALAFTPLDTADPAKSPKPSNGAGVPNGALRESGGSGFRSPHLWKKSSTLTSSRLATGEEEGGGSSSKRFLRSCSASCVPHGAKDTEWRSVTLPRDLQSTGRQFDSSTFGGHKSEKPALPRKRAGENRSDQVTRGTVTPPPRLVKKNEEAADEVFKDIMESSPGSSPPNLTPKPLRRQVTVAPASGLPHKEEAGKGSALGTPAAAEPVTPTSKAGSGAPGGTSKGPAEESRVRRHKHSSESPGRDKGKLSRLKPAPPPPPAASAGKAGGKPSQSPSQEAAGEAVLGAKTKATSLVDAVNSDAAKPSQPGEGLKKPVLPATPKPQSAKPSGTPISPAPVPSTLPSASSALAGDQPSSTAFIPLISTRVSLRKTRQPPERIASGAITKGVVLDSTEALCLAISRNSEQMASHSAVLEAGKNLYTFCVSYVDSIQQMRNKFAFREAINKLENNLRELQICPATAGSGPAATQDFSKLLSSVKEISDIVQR

[32] = molecular target: Tyrosine-protein kinase Lck (Homo sapiens) (UniProt P06239); test: Inhibition of LCK at 5 uM
[33] = molecular target: T1, Serine/threonine-protein kinase mTOR; test: Inhibition of IGF1-activated mTOR signaling in human M059J glioma cells assessed as S6K1 Thr389 site phosphorylation at 10 uM by Western blot; assay type: cell-based
[34] = molecular target: Mitogen-activated protein kinase kinase kinase kinase 4 (Homo sapiens) (UniProt O95819); test: Inhibition of MAP4K4 at 5 uM
Sequence of Mitogen-activated protein kinase kinase kinase kinase 4 (Homo sapiens) (O95819 2-1239 limits assumed): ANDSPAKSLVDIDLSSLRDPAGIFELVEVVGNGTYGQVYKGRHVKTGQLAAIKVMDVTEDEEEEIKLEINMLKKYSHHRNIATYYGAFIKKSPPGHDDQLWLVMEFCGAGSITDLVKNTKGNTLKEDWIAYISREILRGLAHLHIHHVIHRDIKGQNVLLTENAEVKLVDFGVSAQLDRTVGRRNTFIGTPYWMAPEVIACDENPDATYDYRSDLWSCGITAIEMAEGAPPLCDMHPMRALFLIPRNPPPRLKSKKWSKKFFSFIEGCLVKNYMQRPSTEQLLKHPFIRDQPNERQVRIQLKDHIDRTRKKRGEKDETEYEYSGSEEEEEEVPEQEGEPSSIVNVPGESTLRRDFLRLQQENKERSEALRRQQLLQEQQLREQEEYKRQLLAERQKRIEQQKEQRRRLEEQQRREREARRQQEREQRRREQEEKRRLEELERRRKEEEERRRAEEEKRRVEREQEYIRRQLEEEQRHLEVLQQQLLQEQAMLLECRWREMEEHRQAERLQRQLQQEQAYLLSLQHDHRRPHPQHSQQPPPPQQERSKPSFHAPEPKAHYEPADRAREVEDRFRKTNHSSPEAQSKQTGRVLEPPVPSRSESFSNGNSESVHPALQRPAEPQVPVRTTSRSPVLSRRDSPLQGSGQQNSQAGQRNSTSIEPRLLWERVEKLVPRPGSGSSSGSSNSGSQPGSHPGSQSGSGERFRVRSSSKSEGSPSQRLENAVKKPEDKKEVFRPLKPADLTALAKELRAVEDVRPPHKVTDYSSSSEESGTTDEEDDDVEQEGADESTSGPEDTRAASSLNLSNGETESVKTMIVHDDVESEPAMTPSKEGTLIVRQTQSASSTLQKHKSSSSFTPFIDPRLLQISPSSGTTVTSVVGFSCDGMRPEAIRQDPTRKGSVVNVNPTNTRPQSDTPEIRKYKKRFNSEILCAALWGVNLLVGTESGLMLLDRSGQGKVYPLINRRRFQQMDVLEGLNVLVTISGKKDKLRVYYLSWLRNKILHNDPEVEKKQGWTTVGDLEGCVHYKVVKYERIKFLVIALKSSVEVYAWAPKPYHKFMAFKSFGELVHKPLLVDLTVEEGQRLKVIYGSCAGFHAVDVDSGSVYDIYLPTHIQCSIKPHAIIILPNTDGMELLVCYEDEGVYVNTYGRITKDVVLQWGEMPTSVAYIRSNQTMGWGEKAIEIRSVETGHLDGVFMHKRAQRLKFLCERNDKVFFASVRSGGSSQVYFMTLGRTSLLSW

[35] = molecular target: Alpha-1A adrenergic receptor (Homo sapiens) (UniProt P35348); test: Inhibition of phenylephrine-induced human adrenergic alpha1A receptor activity expressed in rat-1 fibroblasts assessed as S6K1 Thr389 site phosphorylation by Western blot
[36] = Antiproliferative activity against TSC1-deficient mouse embryo fibroblasts assessed as decrease in cell number at 10 uM after 1 day relative to control; assay type: functional, Fibroblast; set-up: scale not given: the % may be the effect or the level left
[37] = molecular target: Ribosomal protein S6 kinase beta-1 (Mus musculus) (UniProt Q8BSK8); test: Blockade of S6K1 phosphorylation in TSC1-deficient mouse embryo fibroblasts assessed as Thr389 phosphorylation at 100 nM after 24 hrs by Western blot
[38] = molecular target: Interleukin-1 receptor-associated kinase 4 (Homo sapiens) (UniProt Q9NWZ3); test: Inhibition of IRAK4 at 5 uM
[39] = molecular target: Mitogen-activated protein kinase 14 (Homo sapiens) (UniProt Q16539); test: Inhibition of MAPK14 at 5 uM
Sequence of Mitogen-activated protein kinase 14 (Homo sapiens) (Q16539 whole entry, canonical isoform): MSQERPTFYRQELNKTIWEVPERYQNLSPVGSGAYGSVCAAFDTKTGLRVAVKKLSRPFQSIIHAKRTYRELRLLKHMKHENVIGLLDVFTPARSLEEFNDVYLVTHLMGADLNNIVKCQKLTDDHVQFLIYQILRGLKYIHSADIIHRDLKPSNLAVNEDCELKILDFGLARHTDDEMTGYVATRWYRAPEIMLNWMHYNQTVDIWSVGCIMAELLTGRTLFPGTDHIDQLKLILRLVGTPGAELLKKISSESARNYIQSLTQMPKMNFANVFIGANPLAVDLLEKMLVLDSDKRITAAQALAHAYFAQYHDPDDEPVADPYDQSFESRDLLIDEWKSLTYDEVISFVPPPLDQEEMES

[40] = molecular target: Phosphorylase b kinase gamma catalytic chain, liver/testis isoform (Homo sapiens) (UniProt P15735); test: Inhibition of PHKG2 at 5 uM
[41] = molecular target: T1, Serine/threonine-protein kinase mTOR; test: Inhibition of PDGF-activated mTOR signaling in rat-1 fibroblasts assessed as Akt Ser473 site phosphorylation at 10 uM by Western blot
[42] = molecular target: Casein kinase II subunit alpha (Homo sapiens) (UniProt P68400); test: Inhibition of CSNK2A1 at 5 uM
[43] = molecular target: Ribosomal protein S6 kinase alpha-3 (Homo sapiens) (UniProt P51812); test: Inhibition of RPS6KA3 at 5 uM
Sequence of Ribosomal protein S6 kinase alpha-3 (Homo sapiens) (P51812 whole entry): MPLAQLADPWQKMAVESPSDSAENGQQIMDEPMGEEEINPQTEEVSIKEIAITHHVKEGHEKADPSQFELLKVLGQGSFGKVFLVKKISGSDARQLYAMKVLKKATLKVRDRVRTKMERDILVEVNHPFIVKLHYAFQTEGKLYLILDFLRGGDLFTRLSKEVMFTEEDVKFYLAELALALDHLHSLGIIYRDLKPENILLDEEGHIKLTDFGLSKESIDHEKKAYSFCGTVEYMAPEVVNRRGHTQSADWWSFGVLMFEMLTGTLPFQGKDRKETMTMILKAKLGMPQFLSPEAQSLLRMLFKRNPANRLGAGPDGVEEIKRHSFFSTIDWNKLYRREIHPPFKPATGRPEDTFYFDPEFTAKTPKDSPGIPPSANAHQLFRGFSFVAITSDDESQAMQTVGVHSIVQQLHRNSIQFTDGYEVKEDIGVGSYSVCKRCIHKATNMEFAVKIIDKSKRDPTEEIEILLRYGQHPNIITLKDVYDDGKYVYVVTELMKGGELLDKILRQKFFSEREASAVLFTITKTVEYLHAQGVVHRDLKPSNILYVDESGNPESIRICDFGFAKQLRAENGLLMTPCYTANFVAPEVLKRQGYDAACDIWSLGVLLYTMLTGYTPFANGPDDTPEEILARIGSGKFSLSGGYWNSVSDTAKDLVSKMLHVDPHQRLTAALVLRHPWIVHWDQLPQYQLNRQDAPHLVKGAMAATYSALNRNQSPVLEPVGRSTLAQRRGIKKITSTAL

[44] = Antiproliferative activity against TSC1-deficient mouse embryo fibroblasts assessed as decrease in cell number at 10 uM after 2 day relative to control; assay type: functional, Fibroblast; set-up: scale not given: the % may be the effect or the level left
[45] = molecular target: Receptor-type tyrosine-protein kinase FLT3 (Homo sapiens) (UniProt P36888); test: Inhibition of FLT3 at 5 uM
[46] = molecular target: Protein kinase C beta type (Homo sapiens) (UniProt P05771); test: Inhibition of PRKCB1 at 5 uM
Fibroblast [47] = test: Induction of apoptosis in TSC1-deficient mouse embryo fibroblasts assessed as level of nucleosomes in cell cytoplasm at 10 uM after 24 hrs; assay type: functional, cell-based
[48] = molecular target: Phosphatidylinositol 4,5-bisphosphate 3-kinase catalytic subunit alpha isoform (Homo sapiens) (UniProt P42336); test: Inhibition of p110-alpha PI3K assessed as p85alpha autophosphorylation at 25 uM by autoradiography
[49] = molecular target: Dual specificity mitogen-activated protein kinase kinase 1 (Homo sapiens) (UniProt Q02750); test: Inhibition of MAP2K1 at 5 uM
[50] = molecular target: T1, Serine/threonine-protein kinase mTOR; test: Inhibition of mTOR kinase activity in raptor immunoprecipitates expressed in human 293F cells at 10 uM by autoradiography; assay type: cell-based
[51] = molecular target: Vascular endothelial growth factor receptor 2 (Homo sapiens) (UniProt P35968); test: Inhibition of KDR at 5 uM
[52] = molecular target: Hepatocyte growth factor receptor (Homo sapiens) (UniProt P08581); test: Inhibition of MET at 5 uM
[53] = Inhibition of PDGFR in rat-1 cells assessed as PDGF-induced Erk phosphorylation by Western blot; assay type: cell-based
[54] = molecular target: Insulin-like growth factor 1 receptor (Homo sapiens) (UniProt P08069); test: Inhibition of IGF1R at 5 uM
[55] = molecular target: Tyrosine-protein kinase BTK (Homo sapiens) (UniProt Q06187); test: Inhibition of BTK at 5 uM
Sequence of Tyrosine-protein kinase BTK (Homo sapiens) (Q06187 whole entry): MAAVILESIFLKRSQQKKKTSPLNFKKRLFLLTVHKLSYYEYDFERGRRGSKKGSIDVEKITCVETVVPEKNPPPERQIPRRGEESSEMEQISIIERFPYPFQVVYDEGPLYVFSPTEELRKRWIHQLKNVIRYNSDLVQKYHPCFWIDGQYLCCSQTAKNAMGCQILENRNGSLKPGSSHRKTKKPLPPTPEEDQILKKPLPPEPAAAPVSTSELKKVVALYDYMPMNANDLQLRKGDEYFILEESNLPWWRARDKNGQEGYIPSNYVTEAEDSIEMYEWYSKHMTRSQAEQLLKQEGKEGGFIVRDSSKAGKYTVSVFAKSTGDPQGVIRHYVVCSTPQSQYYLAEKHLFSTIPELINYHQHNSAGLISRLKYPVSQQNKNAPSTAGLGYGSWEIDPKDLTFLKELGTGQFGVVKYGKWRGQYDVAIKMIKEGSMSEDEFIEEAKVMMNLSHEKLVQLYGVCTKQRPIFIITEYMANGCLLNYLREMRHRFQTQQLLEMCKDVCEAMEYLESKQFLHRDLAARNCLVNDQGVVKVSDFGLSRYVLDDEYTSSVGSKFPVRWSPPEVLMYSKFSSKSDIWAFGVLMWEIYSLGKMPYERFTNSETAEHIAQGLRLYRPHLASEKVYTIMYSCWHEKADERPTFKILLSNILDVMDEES

[56] = molecular target: Cyclin-dependent kinase 1/cyclin B1 (Homo sapiens) (UniProt P06493+P14635); test: Inhibition of CDK1/Cyclin B at 5 uM; assay type: protein-complex assay
[57] = molecular target: Receptor tyrosine-protein kinase erbB-2 (Homo sapiens) (UniProt P04626); test: Inhibition of ERBB2 at 5 uM
[58] = molecular target: T1, Serine/threonine-protein kinase mTOR; test: Inhibition of PDGF-activated mTOR signaling in rat-1 fibroblasts assessed as S6K1 Thr389 site phosphorylation at 10 uM by Western blot
[59] = Antiproliferative activity against TSC1-deficient mouse embryo fibroblasts assessed as decrease in cell number at 100 nM after 2 day relative to control; assay type: functional, Fibroblast; set-up: scale not given: the % may be the effect or the level left
[60] = molecular target: RAC-alpha serine/threonine-protein kinase (Mus musculus) (UniProt P31750); test: Increase in Akt phosphorylation in TSC1-deficient mouse embryo fibroblasts assessed as Ser 473 phosphorylation at 100 nM after 24 hrs by Western blot

- IC50 [1]: 0.27 µM
- IC50 [2]: > 100 µM
Compound: O=C(c1ccccc1)c1ccc(N2CCOCC2)cc1O

- Activity [3]: Active
- Activity [4]: Active
- IC50 [2]: 5 µM
Compound: O=c1cc(N2CCOCC2)oc2c(-c3ccccc3)cccc12 [LY-294002]

- inhibition [5]: 40%
- inhibition [6]: 2%
- inhibition [7]: 0%
- inhibition [8]: 5%
- inhibition [9]: 14%
- inhibition [10]: 44%
- inhibition [11]: 5%
- inhibition [12]: 2%
- Activity [13]: Active
- inhibition [14]: -4%
- inhibition [15]: 13%
- IC50 [17]: > 100 µM
- Activity [18]: Active
- inhibition [19]: -3%
- inhibition [20]: 13%
- inhibition [22]: 12%
- inhibition [23]: -3%
- inhibition [24]: 44%
- inhibition [25]: 67%
- inhibition [26]: -3%
- inhibition [27]: -9%
- Activity [28]: Active
- inhibition [29]: -4%
- inhibition [30]: 0%
- inhibition [31]: -5%
- inhibition [32]: -3%
- Activity [33]: Active
- inhibition [34]: 3%
- Activity [35]: Active
- Activity [37]: Active
- inhibition [38]: -5%
- inhibition [39]: 17%
- inhibition [40]: -6%
- Activity [41]: Active
- inhibition [42]: 3%
- inhibition [43]: 7%
- inhibition [45]: 36%
- inhibition [46]: 8%
- Activity [48]: inactive
- inhibition [49]: -8%
- inhibition [50]: 78%
- inhibition [51]: 0%
- inhibition [52]: 19%
- inhibition [54]: -8%
- inhibition [55]: 9%
- inhibition [56]: 3%
- inhibition [57]: 3%
- Activity [58]: Active
Compound: O=c1cc(N2CCOCC2)nc2c3ccccc3ccn12
- Activity (Fibroblast [16]): inactive
- Activity (COS-7): inactive
- Activity (Fibroblast [21]): Dose-dependent effect
- Activity [36]: 54%
- Activity [44]: 84%
- Activity (Fibroblast [47]): Active
- Activity [53]: inactive

- Activity [60]: Active
Compound: CO[C@H]1C[C@@H]2CC[C@@H](C)[C@@](O)(O2)C(=O)C(=O)N2CCCC[C@H]2C(=O)O[C@H]([C@H](C)C[C@@H]2CC[C@@H](O)[C@H](OC)C2)CC(=O)[C@H](C)/C=C(\C)[C@@H](O)[C@@H](OC)C(=O)[C@H](C)C[C@H](C)/C=C/C=C/C=C/1C [SIROLIMUS]
- Activity [59]: 57%
